How the values were obtained:
Type in all cases: biochemical
[1] = biological target: T1, KDM2B (FBXL10) (Homo sapiens, UniProt Q8NHM5); experiment: Histone lysine demethylase AlphaLISA assay, KDM2B; settings: in vitro enzyme, read-out: KDM2B IC50 (HDME Inhibition)
T1 construct: 1-650; purchased BPS Bioscience, US; host or cells: Bac (baculovirus/insect cells)
T1 sequence (Q8NHM5 1-650): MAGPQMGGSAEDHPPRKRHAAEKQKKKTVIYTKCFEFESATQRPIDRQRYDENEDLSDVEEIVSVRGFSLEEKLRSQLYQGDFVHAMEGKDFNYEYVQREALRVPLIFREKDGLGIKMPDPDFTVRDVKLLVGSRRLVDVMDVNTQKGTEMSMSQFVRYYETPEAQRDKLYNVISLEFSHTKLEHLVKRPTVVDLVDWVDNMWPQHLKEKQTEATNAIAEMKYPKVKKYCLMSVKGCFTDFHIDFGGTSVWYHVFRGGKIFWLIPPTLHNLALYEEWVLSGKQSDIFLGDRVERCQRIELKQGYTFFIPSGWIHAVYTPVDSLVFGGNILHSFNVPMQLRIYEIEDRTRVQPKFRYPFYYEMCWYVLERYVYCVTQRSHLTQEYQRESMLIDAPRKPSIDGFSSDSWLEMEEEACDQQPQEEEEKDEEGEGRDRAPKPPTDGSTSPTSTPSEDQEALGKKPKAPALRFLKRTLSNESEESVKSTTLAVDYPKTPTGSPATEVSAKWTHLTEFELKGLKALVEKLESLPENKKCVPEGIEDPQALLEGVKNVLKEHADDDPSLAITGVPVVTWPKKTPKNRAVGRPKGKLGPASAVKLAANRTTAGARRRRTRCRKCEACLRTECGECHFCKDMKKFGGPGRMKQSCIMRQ

[2] = biological target: T2, KDM4C (JMJD2C) (Homo sapiens, UniProt Q9H3R0); experiment: Histone lysine demethylase AlphaLISA assay, KDM4C; settings: in vitro enzyme, read-out: KDM4C IC50 (HDME Inhibition)
T2 construct: 1-349; host or cells: E. coli
T2 sequence (Q9H3R0 1-349): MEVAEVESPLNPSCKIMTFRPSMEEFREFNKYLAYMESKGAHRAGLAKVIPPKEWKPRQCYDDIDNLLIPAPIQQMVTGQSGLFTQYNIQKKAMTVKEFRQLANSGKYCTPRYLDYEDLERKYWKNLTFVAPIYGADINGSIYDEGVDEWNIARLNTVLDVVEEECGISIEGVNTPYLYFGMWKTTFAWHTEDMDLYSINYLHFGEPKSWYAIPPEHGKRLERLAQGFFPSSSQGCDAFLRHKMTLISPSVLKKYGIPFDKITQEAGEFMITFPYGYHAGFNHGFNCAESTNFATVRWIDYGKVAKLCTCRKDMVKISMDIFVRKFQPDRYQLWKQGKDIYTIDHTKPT
Procedure: Histone lysine demethylase AlphaLISA assays are performed to determine IC50 values. […] Assays are performed analogously to the protocol described by PerkinElmer (Roy et al. PerkinElmer Technical Note: AlphaLISA #12, April 2011).
Assays are performed analogously to the protocol described by PerkinElmer (Roy et al. PerkinElmer Technical Note: AlphaLISA #12, April 2011).
Enzymes (final assay concentration 0.1-2.5 nM) are dissolved in enzyme buffer and incubated for 10 min before 5 μL is added to 5 μL 3% DMSO solutions of compounds in enzyme buffer, incubated for another 10 minutes, before 5 μL substrate solution is added and the reaction mixture is incubated at room temperature. 10 μL acceptor beads, suspended Epigenetic Buffer (Perkin Elmer AL008) from stock, are added and the suspension is incubated in the dark at room temperature, before 10 μL suspension of streptavidin donor beads (Perkin Elmer 6760002) in Epigenetic Buffer is added. After incubation at room temperature in the dark the plates are read.
Substrate solution: Substrate (final assay concentration 50-200 nM), 50 mM Hepes (pH 7.4-8.0), 0.003% Tween-20, 0.1% BS, 25 μM L-Asc, 10 μM α-KG. Enzyme Buffer: 50 mM Hepes (pH 7.4-8.0), 0.003% Tween-20, 0.1% BSA; 5 μM (NH4)2Fe(SO4)2

[3] = biological target: PHF8 (KDM7) (Homo sapiens, UniProt Q9UPP1); experiment: Histone lysine demethylase AlphaLISA assay, PHF8; settings: in vitro enzyme, read-out: PHF8 IC50 (HDME Inhibition)
Chain of PHF8 (KDM7) (Q9UPP1 whole entry): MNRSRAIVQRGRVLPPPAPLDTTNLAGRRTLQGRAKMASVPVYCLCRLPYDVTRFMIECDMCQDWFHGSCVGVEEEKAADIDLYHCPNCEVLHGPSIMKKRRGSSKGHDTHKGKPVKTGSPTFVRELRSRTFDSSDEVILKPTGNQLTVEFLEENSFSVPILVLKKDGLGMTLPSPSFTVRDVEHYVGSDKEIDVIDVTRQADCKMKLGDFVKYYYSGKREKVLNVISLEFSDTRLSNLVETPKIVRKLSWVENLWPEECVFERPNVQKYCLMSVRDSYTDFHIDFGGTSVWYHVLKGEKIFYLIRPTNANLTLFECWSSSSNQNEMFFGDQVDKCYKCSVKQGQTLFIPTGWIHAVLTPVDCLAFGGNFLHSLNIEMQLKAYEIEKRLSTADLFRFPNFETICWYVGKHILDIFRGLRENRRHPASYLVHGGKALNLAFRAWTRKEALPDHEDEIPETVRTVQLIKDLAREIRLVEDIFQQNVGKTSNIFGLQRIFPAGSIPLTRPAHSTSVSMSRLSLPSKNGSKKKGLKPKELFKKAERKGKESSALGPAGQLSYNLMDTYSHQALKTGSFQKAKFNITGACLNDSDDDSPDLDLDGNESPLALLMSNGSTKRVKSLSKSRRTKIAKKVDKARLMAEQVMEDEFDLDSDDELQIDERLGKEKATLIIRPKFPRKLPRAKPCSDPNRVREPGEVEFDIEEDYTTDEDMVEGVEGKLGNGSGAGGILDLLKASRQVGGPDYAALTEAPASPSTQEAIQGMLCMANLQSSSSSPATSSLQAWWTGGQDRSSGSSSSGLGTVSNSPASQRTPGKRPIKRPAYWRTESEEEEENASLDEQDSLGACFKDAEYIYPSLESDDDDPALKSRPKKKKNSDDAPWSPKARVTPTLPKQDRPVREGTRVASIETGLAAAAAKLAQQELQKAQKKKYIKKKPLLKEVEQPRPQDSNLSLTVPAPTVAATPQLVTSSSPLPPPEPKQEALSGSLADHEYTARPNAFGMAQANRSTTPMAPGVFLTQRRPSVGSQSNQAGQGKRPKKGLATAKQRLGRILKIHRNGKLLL

[4] = biological target: T3, KDM6A (UTX) (Homo sapiens, UniProt O15550); experiment: Histone lysine demethylase AlphaLISA assay, KDM6A; settings: in vitro enzyme, read-out: KDM6A IC50 (HDME Inhibition)
T3 construct: 919-1401; host or cells: E. coli
T3 sequence (O15550 919-1401): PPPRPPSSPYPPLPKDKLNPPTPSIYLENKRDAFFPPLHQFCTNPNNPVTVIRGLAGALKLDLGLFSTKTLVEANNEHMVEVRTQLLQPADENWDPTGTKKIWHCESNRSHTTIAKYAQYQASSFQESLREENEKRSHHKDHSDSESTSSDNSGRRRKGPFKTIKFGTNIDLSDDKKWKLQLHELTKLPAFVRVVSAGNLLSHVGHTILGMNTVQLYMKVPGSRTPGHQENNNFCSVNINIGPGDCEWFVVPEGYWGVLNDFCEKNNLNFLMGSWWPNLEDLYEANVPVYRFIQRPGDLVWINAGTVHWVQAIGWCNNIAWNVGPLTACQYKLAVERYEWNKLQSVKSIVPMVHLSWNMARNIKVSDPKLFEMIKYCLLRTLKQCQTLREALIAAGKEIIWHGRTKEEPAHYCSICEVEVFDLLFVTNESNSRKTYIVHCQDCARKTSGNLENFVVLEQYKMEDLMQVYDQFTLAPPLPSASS

[5] = biological target: T4, KDM5B (PLU-1) (Homo sapiens, UniProt Q9UGL1); experiment: Histone lysine demethylase AlphaLISA assay, KDM5B; settings: in vitro enzyme, read-out: KDM5B IC50 (HDME Inhibition)
T4 construct: 1-809; host or cells: E. coli
T4 sequence (Q9UGL1 1-809): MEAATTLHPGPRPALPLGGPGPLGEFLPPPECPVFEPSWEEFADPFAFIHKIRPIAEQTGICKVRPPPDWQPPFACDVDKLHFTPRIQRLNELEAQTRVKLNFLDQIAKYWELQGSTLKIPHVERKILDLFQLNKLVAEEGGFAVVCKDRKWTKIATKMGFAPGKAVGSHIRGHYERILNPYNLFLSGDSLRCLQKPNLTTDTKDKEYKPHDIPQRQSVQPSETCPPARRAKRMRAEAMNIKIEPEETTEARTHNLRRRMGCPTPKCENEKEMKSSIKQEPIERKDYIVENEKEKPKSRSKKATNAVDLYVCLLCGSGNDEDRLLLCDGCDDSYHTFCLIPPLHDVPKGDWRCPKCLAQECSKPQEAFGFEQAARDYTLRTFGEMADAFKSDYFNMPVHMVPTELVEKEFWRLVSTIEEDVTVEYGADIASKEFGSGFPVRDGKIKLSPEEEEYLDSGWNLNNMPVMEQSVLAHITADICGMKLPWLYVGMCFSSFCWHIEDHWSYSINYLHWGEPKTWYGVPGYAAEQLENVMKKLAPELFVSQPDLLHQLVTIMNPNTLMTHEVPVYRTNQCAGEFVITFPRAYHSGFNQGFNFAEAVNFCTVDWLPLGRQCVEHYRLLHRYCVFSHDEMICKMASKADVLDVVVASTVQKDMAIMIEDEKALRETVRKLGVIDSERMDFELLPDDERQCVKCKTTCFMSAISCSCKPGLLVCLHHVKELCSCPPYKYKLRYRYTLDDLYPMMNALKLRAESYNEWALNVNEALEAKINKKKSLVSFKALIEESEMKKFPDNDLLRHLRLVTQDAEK

SMILES	IC50 [1] [nM]	IC50 [2] [nM]	IC50 [3] [nM]	IC50 [4] [nM]	IC50 [5] [nM]
CCN(CC)C(=O)CCN(CC(N)=O)C(C)c1cc(C(=O)O)ccn1 (stereo not drawn) [Compound 31, 2-{1-[(carbamoylmethyl)[2-(diethylcarbamoyl)ethyl]amino]ethyl}pyridine-4-carboxylic acid]	> 2500	> 2500	> 2500	–	–
Cc1cn2c(n1)CCN(Cc1cc(C(=O)O)ccn1)CC2 [Compound 69, 2-({2-methyl-5H,6H,7H,8H,9H-imidazo[1,2-d][1,4]diazepin-7-yl}methyl)pyridine-4-carboxylic acid]	> 2500	250 to 2500	250 to 2500	> 2500	< 250
C[C@H](N[C@H](C)c1cc(C(=O)O)ccn1)C(=O)NCc1ccc(CO)cc1 [Compound 16, 2-[(1R)-1-{[(1S)-1-({[4-(hydroxymethyl)phenyl]methyl}carbamoyl)ethyl]amino}ethyl] pyridine-4-carboxylic acid]	250 to 2500	> 2500	–	> 2500	–
CCN(CC)C(=O)CCN(CCC(=O)N(CC)CC)Cc1cc(C(=O)O)ccn1 [Compound 32, 2-({bis[2-(diethylcarbamoyl)ethyl]amino}methyl)pyri-dine-4-carboxylic acid]	250 to 2500	> 2500	> 2500	–	–
COCC(=O)Nc1ccccc1CNC(=O)[C@H](CC(C)C)NCc1cc(C(=O)O)ccn1 [Compound 12, 2-({[(1S)-1-({[2-(2-methoxyacetamido)phenyl]methyl}carbamoyl)-3-methylbutyl]amino}methyl)pyridine-4-carboxylic acid]	250 to 2500	> 2500	250 to 2500	–	–
C=CCc1cnc2c(c1)CCC2NCc1cc(C(=O)O)ccn1 (stereo not drawn) [Compound 95, 2-({[3-(prop-2-en-1-yl)-5H,6H,7H-cyclopenta[b]pyridin-7-yl]amino}methyl)pyri-dine-4-carboxylic acid]	< 250	250 to 2500	< 250	–	–
O=C(O)c1cc(CNCC(=O)N2CCCCC2)ncn1 [Compound 35, 6-({[2-oxo-2-(piperidin-1-yl)ethyl]amino}methyl) pyrimidine-4-carboxylic acid]	250 to 2500	250 to 2500	250 to 2500	> 2500	–
CCN(CC)C(=O)CC(C)NCc1cc(C(=O)O)ccn1 (stereo not drawn) [Compound 43, 2-({[1-(diethylcarbamoyl)propan-2-yl]amino}methyl)pyri-dine-4-carboxylic acid]	250 to 2500	> 2500	250 to 2500	–	–
O=C(O)c1ccnc(CNCc2cn(Cc3ccc(F)cc3)c3ccc(F)cc23)c1 [Compound 86, 2-{[({5-fluoro-1-[(4-fluorophenyl)methyl]-1H-indol-3-yl}methyl)amino]methyl}pyridine-4-carboxylic acid]	250 to 2500	> 2500	–	> 2500	–
C=CCN(CC=C)C(=O)[C@@H](CCS(C)(=O)=O)NCc1cc(C(=O)O)ccn1 [Compound 37, 2-({[(1R)-1-[bis(prop-2-en-1-yl)carbamoyl]-3-methanesulfonylpropyl]amino}methyl)pyridine-4-carboxylic acid]	< 250	> 2500	< 250	> 2500	250 to 2500
COc1ccnc2c1CCC2NCc1cc(C(=O)O)ccn1 (stereo not drawn) [Compound 101, 2-[({4-methoxy-5H,6H,7H-cyclopenta[b]pyridin-7-yl}amino)methyl]pyri-dine-4-carboxylic acid]	< 250	250 to 2500	–	–	< 250
CC(C)(C)OC(=O)NCCCC[C@@H](CO)NCc1cc(C(=O)O)ccn1 [Compound 22, 2-({[(2S)-6-{[(tert-butoxy)carbonyl]amino}-1-hydroxyhexan-2-yl]amino}methyl)pyri-dine-4-carboxylic acid]	< 250	250 to 2500	–	> 2500	< 250
CCN1CCC(CNCc2cc(C(=O)O)ccn2)C1=O (stereo not drawn) [Compound 39, 2-({[(1-ethyl-2-oxopyrrolidin-3-yl)methyl]amino}methyl)pyridine-4-carboxylic acid]	< 250	250 to 2500	250 to 2500	> 2500	< 250
O=C(O)c1ccnc(CNC2CCc3cccnc32)c1 (stereo not drawn) [Compound 98, 2-[({5H,6H,7H-cyclopenta[b]pyridin-7-yl}amino)methyl]pyri-dine-4-carboxylic acid]	250 to 2500	250 to 2500	–	–	< 250
O=C(O)c1ccnc(CNC2CCc3cc(Br)cnc32)c1 (stereo not drawn) [Compound 103, 2-[({3-bromo-5H,6H,7H-cyclopenta[b]pyridin-7-yl}amino)methyl]pyri-dine-4-carboxylic acid]	< 250	250 to 2500	< 250	> 2500	–
CC(C)c1ccnc2c1CCC2NCc1cc(C(=O)O)ccn1 (stereo not drawn) [Compound 99, 2-({[4-(propan-2-yl)-5H,6H,7H-cyclopenta[b]pyridin-7-yl]amino}methyl)pyri-dine-4-carboxylic acid]	< 250	250 to 2500	–	> 2500	–
CCNC(=O)C[C@H]1CCN(Cc2cc(C(=O)O)ccn2)C1 [Compound 73, 2-{[(3R)-3-[(ethylcarbamoyl)methyl]pyrrolidin-1-yl]methyl}pyridine-4-carboxylic acid]	250 to 2500	> 2500	250 to 2500	–	–
CCN1CC[C@H](CNCc2cc(C(=O)O)ccn2)C1=O [Compound 106, 2-[({[(3R)-1-ethyl-2-oxopyrrolidin-3-yl]methyl}amino)methyl]pyridine-4-carboxylic acid]	< 250	< 250	–	> 2500	–

— patent US20170369444A1, “INHIBITORS OF HISTONE DEMETHYLASES” (Gilead Sciences, Inc., priority 2014, published 2017)
